Data on 8 compounds can be found in EP0139358B1, “N6-substituted diarylalkyl adenosines, processes for their production and pharmaceutical compositions comprising the same” (priority 1983, dated 1985).

For data set [1], the system named is Swiss-Webster male mice. Kind of data set: Mouse Activity and Screen Test (MAST): inhibition of spontaneous locomotion (LI). In kind it is in vivo. Here is the method:
(§1) Treatments are administered intraperitoneally one hour prior to testing. […] Compounds are dissolved or suspended in 0.2% Methocel. Control animals are injected with Methocel.
Immediately following the screen test, the final phase of testing is initiated by placing each group of three mice in one actophotometer (Life Sciences, 22, 1067-1076, 1978). The actophotometer consists of a cylindrical chamber whose center is occupied by another cylinder which contains the illumination for six photocells located on the perimeter of the chamber. Six light-beam interruptions equal one count. Locomotor activity is recorded by computer at ten minute intervals for 60 minutes. […]

Data set [2] relates to rat heart. Kind of data set: Coronary blood flow (PCS2A): isolated perfused heart. The procedure: CORONARY BLOOD FLOW (PCS2A)
Male rats (400-600 gms) are pretreated with Na haparin 2000 units and anesthetized with Na pentobarbital (50 mg/kg) administered intraperitoneally. Once anesthetized, the rat heart is rapidly excised, the ascending aorta fitted to the aortic perfusion cannula, and […] with a ligature. The coronary arteries are perfused initially at a rate of about 15 ml/min for two to three minutes, afterwhich they are perfused at constant pressure of 70 mm Hg and temperature of 37°C. The electrocardiogram (ECG) is recorded using two platinum electrodes positioned at the base and apex of the left ventricle. A second heart is excised, cannulated, and perfused by the same method outlined above. Both hearts are tested in parallel. The standard physiological salt solution (PSS) is a modified Krebs-Hanseleit bicarbonate buffer of the following composition in mM concentration: NaCI, 127; NaHC03, 25; dextrose, 5.5; Na Pyruvate, 2.0: KCI, 4.7; MgS04, 1.1; KH 2P04, 1.2; CaCl2·2H2O, 2.5; CaNa2 EDTA, 0.05.
A 30-minute stabilization period is observed before starting the test protocol.
The microprocessor control system is a servo mechanism which permits coronary perfusion pressure (CPP) and drug concentration to be maintained constant independent of changes in coronary flow. The level at which CPP and drug concentration are maintained can be changed by commands communicated through the microprocessor keyboard. Dose-response curves are carried out by perfusing concentrated drug solution (DC) at rates proportional to total coronary flow (CFT). Drug concentrations are increased by proportionate increases in the rate of DC infusion over CFT via the microprocessor keyboard. The proportional flow rates for DC:CFT is about .0002:1 at the low end and .02: at the high end of the dose-response curve. Dose-response curves encompassing at least two log doses are carried out by preparing two DCs with a concentration difference of 1:100. Following the first dose range of two log doses, the DC are switched, proportional pumping rate adjusted, and the dose-response curve continued for another two log doses. The standard dose-response curve is carried out in one-half log dose increments starting at a subthreshold dose and ending at a dose which produces near maximal response in activity. Standard reference compounds are tested over the range of 10-^9 to 10-^6M.
Measurements are for heart rate (HR) and coronary flow (CF). Units are: HR, beats/minute (bpm) and CF, milliliters/minute (ml/min). HR is calculated from the ECG strip chart recording and CF is calculated by recording analog outputs from pumps 1 and 2. Outputs from pump #1 = CFT and the output from pump #2 = CF for heart B (CFg). CF for heart A (CFA) is calculated (CFT - CFB = CFA).
Using the above technique, the effects of the compound of Examples 1 and 2 are as follows: […]

The test system of data set [3] is Long-Evans rats or squirrel-monkeys. Kind of data set: Antipsychotic lever-push shock avoidance protocol (SIDR). In kind it is in vivo. The settings on record: Rattus norvegicus; shock avoidance lever pushing; read-out: SIDR ED50. Here is the method:
Representative compounds of the invention (identified in the Examples) were also tested for antipsychotic activity according to the following protocol (SIDR). […] Mature male Long-Evans rats or squirrel-monkeys are conditioned to push a lever in order to avoid a painful electric footshock. If the animal fails to push the lever, he receives a shock every ten seconds until the lever is pushed. Shocks can be terminated by pushing the lever. Thereafter, as long as the lever is pushed at least once every 20 seconds, there will be no shock. Each animal acts as its own control; one weekly session is used to establish baseline behavior and another session later in the week is used as a drug session. Once patterns of avoidance are established, the effects of standard and unknown compounds are studied. All events are electronically programmed and the response to these events counted or used as feedback to the program.

For data set [4], the system named is Swiss-Webster male mice. Kind of data set: Mouse Activity and Screen Test (MAST): screen test (ST). The format is in vivo. As to conditions: for Inhibition of screen test failure: percent of mice falling off the screen; for MAST ST LAD: lowest dose at which an A rating (60-100%) is achieved, screen test, intraperitoneally. Here is the method:
as §1
The compounds are identified in the Examples.

Data set [5] concerns conscious rat. Kind of data set: Antihypertensive evaluation (AHP3): aortic blood pressure and heart rate. The settings on record: read-out: AHP3 BP LAD. The format is in vivo. The source says:
[…] EVALUATION (AHP3)
This test procedure is described in the following paragraphs.
A Method for the Direct Monitoring of Aortic Blood Pressure and Heart Rate from Conscious Rats
The continuous monitoring of pulsatile blood pressure (BP) from unrestrained conscious rats surgically equipped with polyethylene cannulas was accomplished by means of a computer assisted data capture scheme (CADCS). The absic elements of the methodology are the cannulation procedure and the CADCS.
Cannulation Procedure: Rats were anesthetized with Telazol (1:1 tiletamine HCI and zolazepam HCI); 20-40 mg/kg IM and the descending aorta exposed via a midline incision. Cannulas fabricated from polyethylene tubing were inserted into the aorta via an undersized puncture hole below the renal arteries. The puncture hole was made by a 23 G disposable needle with a section of the aorta clamped off above and below the puncture site. The cannulas, consisting of a PE100 (0.86 mm ID) body and a PE50 (0.58 mm ID) tip, were attached to a trocar, inserted through the psoas muscle, and passed subcutaneously along the midline of the back and externalized between the ears. The cannulas were anchored to the psoas muscle and between the scalulae (3-0 green braided suture). The midline incision was closed in two steps (muscle first, skin second) using continuous over-and over sutures (4-0 chronic). Each rat was then given penicillin 30,000 units subcutaneously (Penicillin G Procaine Sterile Suspension).
The rats were fitted with a harness-spring-swivel assembly designed to protect the cannula and to provide the rat relative freedom of movement. The harnesses were fabricated from nylon hook and loop tape cemented to a metal plate to which spring wires (18-8 stainless steel), were attached to brass swivels. Each polyethylene cannula was channeled through a spring and connected through a swivel to a pressure transducer (Model P23Gb; Statham Instruments; Hato Rey, Puerto Rico) and an infusion pump (Sage model 234-7; Orion Research, Cambridge, Ma) by means of PE100 tubing. While on test, each rat received a continuous slow infusion of heparinized saline solution (approximately 400 I or 40 units of heparin per 24 hour period) to prevent clot formation. Additional "flushes" of the cannula with heparinized saline were carried out when the aortic pulse pressure (systolic minus diastolic) was less than 25 mm Hg.
CADCS: The pulsatile blood pressure and heart rate of each of 32 rats was monitored every minute by means of two in-laboratory microcomputers communicating directly with a data concentrator computer. The data were first stored on the data concentrator disk and then transferred to a magnetic tape for analysis and report generation by the main research computer. The overall scheme involved modulating the primary signal from the pressure transducer, generating the primary data set of the one-minute values for systolic, diastolic, and mean blood pressures and heart rate by the in-lab microcomputer and the storage, analysis, and report generation by the main research computer.
The transducers were connected to analog signal conditioning modules. The modules providing a regulated excitation voltage for the transducers, amplification as required to interface the microprocessors and an active low pass filter to compensate for the pressure wave form distortion produced by the flexible, fluid filled, narrow cannula.
The microcomputers (one for each of two groups of 16 rats) were connected to the input components through the module interface units, an analog-to-digital converter for the pressure wave form signal and the digital inputs for the dose and event marker switches. The microcomputer controlled the sequential acquisition of data from the modular interface units through an internal synchronous time-of-day clock/ time base generator. […]

Where [6] appears, read: 10 mg/kg intraperitoneally, one hour prior to testing; vs vehicle.
The mark [7] stands for this setting: 30 mg/kg intraperitoneally, one hour prior to testing; vs vehicle.
Where [8] appears, read: 100 mg/kg intraperitoneally, one hour prior to testing; vs vehicle.
The mark [9] stands for this setting: Mus musculus, ip; read-out: MAST LI LAD.
Setting [10] is: coronary flow, isolated perfused rat heart, read-out: PCS2A CF ED50.
Where [11] appears, read: heart rate, isolated perfused rat heart, read-out: PCS2A HR ED50.
[12] abbreviates: lowest dose tested at which a >10% reduction in blood pressure for four consecutive hours is achieved, conscious rat.

SMILES strings stand for the structures. Where two headings read alike, the source gives them in different places. Where only a bound is given, the exact number is not on record here.

One may read the ED50 as the dose at which the effect has come halfway, by size or by number of responders. For `Nc1nc(NCC(c2ccccc2)c2ccccc2)c2ncn([C@@H]3O[C@H](CO)[C@@H](O)[C@H]3O)c2n1` [Example 4, N^6-(2,2-Diphenylethyl)-2-aminoadenosine], the “Inhibition of mouse locomotor activity” value is given as 64% in data set [1] (setting [6]), 87% in data set [1] (setting [7]) and 95% in data set [1] (setting [8]). Moreover, the minimal effective dose was determined as 10 mg/kg in data set [1] (setting [9]) and 30 mg/kg in data set [5] (setting [12]). Besides, the EC50 was 1 µM in data set [2] (setting [10]) and more than 0.1 µM in data set [2] (setting [11]). The ED50 in data set [3] was 3.8 mg/kg. Besides, the “Inhibition of screen test failure” value is listed as 0% in data set [4] (10 mg/kg intraperitoneally), 11% in data set [4] (30 mg/kg intraperitoneally) and 22% in data set [4] (100 mg/kg intraperitoneally). Besides, the “MAST ST LAD” value in data set [4] is reported as more than 100 mg/kg.
For the compound `CC(CNc1nc(N)nc2c1ncn2[C@@H]1O[C@H](CO)[C@@H](O)[C@H]1O)(c1ccccc1)c1ccccc1` [Example 21, N'-(2,2-Diphenylpropyl)-2-aminoadenosine], the values for the minimal effective dose in data set [1] (setting [9]) and in data set [5] (setting [12]) were 30 mg/kg and more than 10 mg/kg, respectively. For the same compound, the EC50 in data set [2] (setting [10]) and in data set [2] (setting [11]) was more than 10 µM in each case. Also, the “MAST ST LAD” value in data set [4] is more than 100 mg/kg.
For the compound `OC[C@H]1O[C@@H](n2cnc3c(NCC(c4ccccc4)c4ccc(F)cc4)ncnc32)[C@H](O)[C@@H]1O` (stereo partly shown) [Example 10, N^6-(2-(4-Fluorophenyl)-2-phenylethyl)adenosine], the minimal effective dose was 3 mg/kg in data set [1] (setting [9]) and 10 mg/kg in data set [5] (setting [12]). For the same compound, the EC50 in data set [2] (setting [10]) is 0.01 µM; in data set [2] (setting [11]), 1.4 µM. The ED50 in data set [3] came to 8.6 mg/kg. Besides, the “MAST ST LAD” value in data set [4] was more than 100 mg/kg.
`O=[N+]([O-])c1ccc(C(CNc2ncnc3c2ncn3[C@@H]2O[C@H](CO)[C@@H](O)[C@H]2O)c2ccc([N+](=O)[O-])cc2)cc1` [Example 20, N^6-(2,2-Di-(4-nitrophenyl)ethyl)adenosine]: the minimal effective dose is 100 mg/kg in data set [1] (Mus musculus, ip, read-out: MAST LI LAD) and more than 10 mg/kg in data set [5] (Rattus norvegicus). Besides, the EC50 in data set [2] (Rattus norvegicus, read-out: PCS2A CF ED50) is 0.3 µM; in data set [2] (Rattus norvegicus, read-out: PCS2A HR ED50), more than 3 µM. The “MAST ST LAD” value in data set [4] was more than 100 mg/kg.
Regarding `OC[C@H]1O[C@@H](n2cnc3c(NCC(c4ccccc4)c4ccc(F)cc4)nc(Cl)nc32)[C@H](O)[C@@H]1O` (stereo partly shown) [Example 11, N^6-(2-(4-Fluorophenyl)-2-phenylethyl)-2-chloroadenosine], the values for the minimal effective dose in data set [1] (setting [9]) and in data set [5] (setting [12]) were 30 mg/kg and 10 mg/kg, respectively. The EC50 in data set [2] (setting [10]) is 0.05 µM; in data set [2] (setting [11]) it was more than 3 µM. Moreover, the “MAST ST LAD” value in data set [4] is more than 100 mg/kg.
On to `OC[C@H]1O[C@@H](n2cnc3c(NCC(O)(c4ccccc4)c4ccccc4)ncnc32)[C@H](O)[C@@H]1O` [Example 22, N^6-(2,2-Diphenyl-2-hydroxyethyl)adenosine], for which the minimal effective dose was 1 mg/kg in data set [1] (setting [9]) and 10 mg/kg in data set [5] (setting [12]). Also, the values for the EC50 in data set [2] (setting [10]) and in data set [2] (setting [11]) were more than 1 µM and 0.5 µM, respectively. The “MAST ST LAD” value in data set [4] is reported as 100 mg/kg.
Turning to `OC[C@H]1O[C@@H](n2cnc3c(NCCC(c4ccccc4)c4ccccc4)ncnc32)[C@H](O)[C@@H]1O` [Example 2, N^6-(3,3-Diphenylpropyl)adenosine], the “Inhibition of mouse locomotor activity” value in data set [1] (setting [6]) was −9%; in data set [1] (setting [7]), 13%; in data set [1] (setting [8]) it was 60%. Besides, the results for the minimal effective dose in data set [1] (setting [9]) and in data set [5] (setting [12]) were 100 mg/kg and more than 30 mg/kg, respectively. For the same compound, the activation at 1 µM in data set [2] (Dose 1 × 10^-6 Molar, coronary flow change, isolated rat heart, read-out: CF) was determined as 47%. Also, the activation at 0.1 µM in data set [2] (Dose 1 × 10^-7 Molar, coronary flow change, isolated rat heart, read-out: CF) was 42%. The activation at 0.01 µM in data set [2] (Dose 1 × 10^-8 Molar, coronary flow change, isolated rat heart, read-out: CF) amounted to 26%. In addition, the activation at 3 µM in data set [2] (Dose 3 × 10^-6 Molar, coronary flow change, isolated rat heart, read-out: CF) worked out at 48%. Besides, the EC50 in data set [2] (setting [10]) was determined as 3 µM; in data set [2] (setting [11]), 6 µM. Moreover, the “Inhibition of screen test failure” value in data set [4] (10 mg/kg intraperitoneally), in data set [4] (30 mg/kg intraperitoneally) and in data set [4] (100 mg/kg intraperitoneally) was 0% throughout. In data set [4], the “MAST ST LAD” value is more than 100 mg/kg.
`OC[C@H]1O[C@@H](n2cnc3c(NCCCCC(c4ccccc4)c4ccccc4)ncnc32)[C@H](O)[C@@H]1O` [Example 7, N^6-(5,5-Diphenylpentyl)adenosine]: the minimal effective dose is 100 mg/kg in data set [1] (setting [9]) and more than 10 mg/kg in data set [5] (setting [12]). In addition, the EC50 in data set [2] (setting [10]) is more than 3 µM; in data set [2] (setting [11]), 3 µM. In addition, the “MAST ST LAD” value in data set [4] is more than 100 mg/kg.
